Legend:
[1] = test system: forebrain cholinergic neurons (cultures of rat basal forebrain); assay: ChAT activity in primary cultures of fetal rat basal forebrain (septal) cholinergic neurons treated with neurotrophins and K-252 compounds; assay type: cell-based
Experimental: Recombinant human NGF (rhNGF), BDNF (rhBDNF), and NT-3 (rhNT-3) and K-252b were added to primary cultures of fetal rat brain neurons containing either forebrain cholinergic or midbrain dopaminergic neurons. A broad range of concentrations of K-252b were tested in presence of 50 ng/ml rhNGF, 200 ng/ml rhBDNF and 1 μg/ml rhNT-3, growth factor concentrations producing maximal trophic actions on cholinergic neurons. The trophic action was monitored by measuring the activity of ChAT, a parameter reflecting both survival and transmitter-specific differentiation of cholinergic cells.
Primary cultures of fetal rat brain septal and mesencephalic cells were prepared in a heretofore known manner [Knusel et al., supra]. Briefly, defined areas were dissected from fetal rat brains (Wistar, E15-16, Charles River, Mass.). The septal area contained the cholinergic neurons from septum, diagonal band of Broca and nucleus basalis. The ventral mesencephalon containing the dopaminergic neurons of the substantia nigra and the ventral tegmental area was dissected and dissociated mechanically. The cells were plated in 16 mm multiwell plates precoated with polyethyleneimine (1 mg/ml, 37° C., overnight), containing 0.5 ml modified L-15 medium supplemented with 5% heat inactivated horse serum and 0.5% heat inactivated fetal calf serum. Modified L-15 was prepared [Knusel et al., "Selective and Nonselective Stimulation of Central Cholinergic and dopaminergic Development in vitro by Nerve Growth Factor, Basic Fibroblast Growth Factor, Epidermal Growth Factor, Insulin and the Insulin-like Growth Factors I and II," J. Neurosci. 10:558-570 (1990)] by adding various amino acids, vitamins, antibiotics, glucose and NaHCO3 to Leibovitz's L-15 medium (Gibco, Grand Island, N.Y.). Plating densities were 4×10^5 cells/cm^2 for basal forebrain cultures and 3×10^5 cells/cm^2 for mesencephalic cultures. Of these cells, 0.5 to 1% were cholinergic or dopaminergic, respectively. Growth factors were typically added on the second day of culture and the cells were grown for 5 or more days. For ChAT assays tissue was homogenized in 250 μl of 50 mM Tris-HCl buffer, pH 6.0 with 0.3% Triton X-100. [1-^14 C]acetylcoenzyme A (NEN) concentration was 20 μM and specific activity 4.09 Ci/mol. To measure dopamine uptake, cultures were preincubated for 5 min at 37° C. with 250 μl incubation solution (5 mM glucose, 1 mM ascorbic acid in PBS) containing 1 mM pargyline. [^3 H]dopamine (37 Ci/mmol) was then added to give a final concentration of 50 nM and the cultures were incubated for another 15 minutes. Blanks were obtained by incubating cells at 0° C.
FIG. 1 illustrates levels of ChAT activity in cultures of rat basal forebrain treated with rhNGF, rhBDNF, or rhNT- and K-252b. Growth factors were added on the second day of culture and the cells were grown for 5 days. Growth factor concentrations producing maximal elevations of ChAT activity were used. In FIG. 1, .largecircle. represents the control; .quadrature., 50 ng/ml rhNGF; Δ, 200 ng/ml rhBDNF; and .tangle-soliddn., 1 μg/ml rhNT-3. The ChAT stimulation mediated by all three neurotrophins was inhibited by K-252b at concentrations above 200 nM. […] N=4 per data point. Error bars represent SEMs and were omitted where they would have appeared smaller than the symbol.
These compounds were accordingly tested for possible NT-3 potentiation at lower concentrations than necessary for NGF inhibition. Culture conditions were as described in Example 1. Cultures were untreated (controls) or treated with 200 ng/ml NT-3 and increasing concentrations of the inhibitors. The findings are shown in FIG. 6, in which "Stau", "K2a", "K2b", "K57", "K58", "K59" represent, respectively, staurosporine, K-252a, K-252b, KT5720, KT5823, and KT5296. […] Staurosporine and KT5296 were ineffective.

[2] = biological target: cAMP-dependent protein kinase; conditions: in vitro assay systems; cited from earlier work

## CC12OC(CC1(O)C(=O)O)n1c3ccccc3c3c4c(c5c6ccccc6n2c5c31)CNC4=O (stereo not drawn) [K-252b]
[1]; 100 pM to 30 nM K-252b
  effect on ChAT actions of NGF or BDNF: without affecting
[1]; 50 nM K-252b
  effect on potency and maximal efficacy of NT-3 (ChAT): increased both potency and maximal efficacy
[1]; 10-100 nM K-252b with NT-3
  effect on NT-3 stimulation of ChAT activity: same stimulatory effect as NGF
[1]; Rattus norvegicus, Neuron, read-out: minimal concentration required to completely abolish the ChAT responses
  IC100: ~2 µM
[1]; low concentrations of K-252b
  effect on stimulatory effects of NGF or BDNF on cholinergic neurons: not potentiated
[1]; non-neurotrophin growth factors
  effect on ChAT increases mediated by bFGF, insulin and insulin-like growth factor-1: not affected
[1]; relatively high dosages
  effect on trophic action of NGF on cholinergic neurons (ChAT): completely and selectively prevent
[1]; structural relatives, Example 6
  inhibition of action of central cholinergic neurons: inhibition
[2]
  Ki: 0.01 to 0.1 µM
